Our source for the IC50 values is ChEMBL document CHEMBL1275341, “Synthesis and antimalarial activities of rhenium bioorganometallics based on the 4-aminoquinoline structure” (Bioorg Med Chem, 2010).

Each structure is given as a SMILES string.

In assay [1] the test system is Plasmodium falciparum. The assay can be described thus: Antimalarial activity against chloroquine-resistant Plasmodium falciparum W2 infected in human A+ erythrocytes assessed as inhibition of [3H]hypoxanthine uptake after 48 hrs by scintillation counting. It counts as functional, organism-based.
The subject of assay [2] is Plasmodium falciparum. The assay can be described thus: Antimalarial activity against chloroquine-susceptible Plasmodium falciparum 3D7 infected in human A+ RBC assessed as inhibition of [3H]hypoxanthine uptake after 48 hrs by scintillation counting. It counts as functional, organism-based.

`Clc1ccc2c(NCCNCc3c4ccccc4cc4ccccc34)ccnc2c1`: the IC50 – broadly, the midpoint of a concentration-inhibition curve – with Plasmodium falciparum [1] is 797 nM; with Plasmodium falciparum [2], 84 nM.
The corresponding values for `Clc1ccc2c(NCCNCc3cccc4ccccc34)ccnc2c1` are 1200 nM and 471 nM.
The matching figures for `Clc1ccc2c(NCCNCc3ccc4ccccc4c3)ccnc2c1`: 820 nM and 48 nM.
